Test [1] concerns de novo synthesis of SM in CHO cells. Description: Metabolic labeling of lipids with [14C]serine in CHO cells. It counts as cell-based, Chinese hamster. The note with it: for inhibition of de novo SM synthesis (stereoisomers): [14C]serine labeling (FIG. 6B). As for the experimental part:
(§1) CHO cells are cultured in Ham's F12 medium supplemented with 10% newborn bovine serum (NBS), penicillin G (100 unit/mL) and streptomycin sulfate (100 μg/mL) at the temperature of 33° C. and 5% CO2 atmosphere. In the case of HeLa cells, Dulbecco's minimum essential medium is used as a base medium instead of Ham's F12 medium.
Further, Nutridoma medium (Ham's F12 medium containing 1% Nutridoma-SP, product of Roche Molecular Biochemicals, and 25 μg/mL of gentamicin) is used as a serum-free medium. In the case when the medium is supplemented by DMSO or drugs dissolved in DMSO, the concentration of DMSO in culture medium is adjusted to be 0.01%.
CHO cells are seeded at the density of 1.0×10^6 cell in 5 mL of F12 medium containing 10% NBS, by per 60-mm dish, and cultured at 33° C. overnight. Then, the medium is changed to 1.5 mL of Nutridoma medium if necessary, various drugs are added and incubated at 4° C. for 15 minutes. Then, after addition of [^14C] serine (0.75 μCi) or [^14 C] choline (1.0 μCi) to the medium, cells were incubated at 33° C. for various periods of time.
Cells are washed twice with 2 mL of cold phosphate-buffered saline (PBS), and lysed with 900 μL of 0.1% sodium dodecyl sulfate (SDS). Then, 800 μL and 20 μL of lysate are used for lipid extraction and determination of protein concentration, respectively.
For the analysis of lipids labeled with [C^14C] serine, lipids were separated by TLC with a solvent consisting of methylacetate/n-propanol/chloroform/methanol/0.25%KCl (25:25:25:10:9, volume ratio) as a developing solvent.
Radioactive lipid separated on the TLC plates are detected with image analyzer depicted above. After the collection of gels from TLC plates by scraping, the radioactivity of each lipid is determined by liquid scintillation counting and normalized to the protein concentration of cells.

Test [2] relates to synthesis of SM in HeLa cells. Description: De novo synthesis of SM in HeLa cells. It counts as cell-based. The note with it: FIG. 6D. As for the experimental part:
as §1

For test [3], the system named is protein trafficking from the ER to the Golgi apparatus. Description: Glycoprotein (PLAP-HA) transport from the ER to the Golgi apparatus. Format: cell-based, Chinese hamster. The note with it: 2.5 μM; CHO-K1 transformant expressing PLAP-HA (FIG. 7).

On to `CCCCCCCCCCCC(=O)N[C@@H](CO)C[C@@H](O)c1ccccc1` [(1R, 3R)-HPA-12], for which, in test [1] (FIG. 6B, 6C), the “inhibitory activity on the Cer-to-SM conversion among four stereoisomers” value is “strongest inhibitory activity”. Also, the “inhibition of de novo SM synthesis (stereoisomers)” value in test [1] is reported as “strongly”. Moreover, the “synthesis of SM in HeLa cells” value in test [2] was “inhibits”. Besides, the “maturation rate of newly synthesized PLAP-HA to an EndoH-resistant form” value in test [3] is on record as “not affected”.

For `CCCCCCCCCCCC(=O)N[C@H](CO)C[C@H](O)c1ccccc1` [(1S, 3S)-HPA-12], in test [1], the “inhibition of de novo SM synthesis (stereoisomers)” value is “moderately”.

As to `CCCCCCCCCCCCCCCC(=O)NC(CO)CC(O)c1ccccc1` (stereo not drawn) [HPA-16], the “formation of [14C]SM” value in test [1] (2.5 μM drug, [14C]serine labeling, CHO cells (FIG. 1B)) is “less than that of HPA-12”.

Source of the values: patent publication US6888015B2, “Sphingolipid synthesis inhibitor” (Japan Science and Technology Agency, priority 2001, dated 2005).
